Source: patent US7728000B2, “Substituted quinolines for the treatment of cancer” (Crystax Pharmaceuticals, priority 2003, dated 2010)

Tests used:
Jurkat clon E6-1 = test: In vitro cytotoxicity, colorimetric MTT assay on Jurkat clon E6-1; type: cell-based; settings: human leukemia cell line, concentrations up to 100 mikroM, incubation until 72 h, read-out: IC50 (_M) Jurkat clon E6-1
Experimental: (§1) The in vitro cytotoxicity of the compounds of the present invention was evaluated by colorimetric assays with tetrazol salts (MTT) on Jurkat clon E6-1 and on GLC-4, human leukemia and carcinoma cell lines, respectively. This assay is based on the capacity of live cells to incorporate and reduce the MTT, […], only active in live cells. The intensity of observed colour is directly correlated with the quantity of live cells in the sample as it is described by Mosmann et al., J. Immunol. Methods 1983, vol. 65, p. 55. In all cases the concentrations used were up to 100 mikroM and times of incubation until 72 h.

GLC-4 = test: In vitro cytotoxicity, colorimetric MTT assay on GLC-4; type: cell-based; settings: GLC4, human carcinoma cell line, concentrations up to 100 mikroM, incubation until 72 h, read-out: IC50 (_M)GLC-4
Experimental: as §1

SMILES | IC50 (Jurkat clon E6-1) [nM] | melting point [°C] | IC50 (GLC-4) [nM]
CN(CCCNC(=O)c1c2ccccc2nc2ccccc12)CCCNC(=O)c1c2ccccc2nc2c1[nH]c1ccccc12 [Ia, N-[3-[[3-[(9-acridinecarbonyl)amino]propyl]methylamino]propyl]-10H-indolo[3,2-b]quinoline-11-carboxamide] | 1420 | 108 to 110 | 1630
CN(C)CCNc1c2nc3ccccc3c-2n(C)c2ccccc12 [Ip, N,N-dimethyl-N′-(5-methyl-5H-indolo[3,2-b]quinolin-11-yl)-ethane-1,2-diamine] | 260 | – | 670
CN(C)CCNC(=O)c1c2ccccc2nc2c1[nH]c1ccccc12 [Iu, 10H-indolo[3,2-b]quinoline-11-carboxylic acid (2-dimethylamino-ethyl)amide] | 18700 | – | 15700
CC(CNC(=O)c1c2ccccc2nc2c1[nH]c1ccccc12)N(C)C (stereo not shown) [Iv, 10H-Indolo[3,2-b]quinoline-11-carboxylic acid (2-dimethylamino-propyl)amide] | – | 188 to 189 | 16700
CC(CN(C)C)Nc1c2nc3ccccc3c-2n(C)c2ccccc12 (stereo not shown) [Iw, N,N-dimethyl-N′-(5-methyl-5H-indolo[3,2-b]quinolin-11-yl)-propane-1,2-diamine] | – | – | 1080
